The values that follow come from PubChem BioAssay (NCI).

Test in all cases: NCI tumour cell line growth inhibition, 48 h
Test [1] relates to TK-10 renal.
For test [2], the system named is HCT-116 colon.
For test [3], the system named is KM12 colon.
In test [4] the test system is HL-60(TB) leukemia.
The subject of test [5] is K-562 leukemia.
Test [6] relates to SK-MEL-5 melanoma.
The test system of test [7] is MALME-3M melanoma.
Test [8] relates to OVCAR-4 ovarian.
The subject of test [9] is BT-549 breast.
In test [10] the test system is HS 578T breast.

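These data come from cells grown in 96-well plates and exposed to compound for 48 hours at five concentrations. The concentration for 50% growth inhibition is given as GI50. At the TGI there is no net growth.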 Where only a bound is given, the exact number is not on record here.

On to `O=C1C2C3C=C4c5ccccc5N(c5ccccc5)C4(C2C(=O)N1c1ccc(Br)cc1)[C@H]1C(=O)N(c2ccc(Br)cc2)C(=O)[C@@H]31` (some centres undefined), for which the TGI in test [1], in [2], in [3], in [4], in test [5] and in test [6] was over 100 µM throughout. The TGI in [7] and in test [8] was over 100 µM each time.
Regarding `S=C=NCCc1ccccc1`, the TGI is 3.34 µM in test [1]; 1.74 µM in test [2]; 1.48 µM in test [3]; 2.65 µM in [4]; over 64.1 µM in test [5]; 1.39 µM in test [6]. Further, the values for the TGI in test [7] and in test [8] were 2.51 µM and 6.33 µM, respectively.
On to `CCOc1ccc(O)cc1[P+](c1ccccc1)(c1ccccc1)c1ccccc1`, for which the TGI stood at 12.9 µM in test [1]; 13.7 µM in test [2]; 11.7 µM in test [3]; 9.48 µM in [5]; 4.7 µM in test [6]; 20.1 µM in test [7]. Also, the TGI in test [8] came out at 19.4 µM.
As for `COC1OC(C)C2OC(C)(C)OC2C1OC(C)=O` (centres undefined), the TGI in test [1], in [2], in test [3], in test [4], in test [5] and in test [6] was over 100 µM in each case. The TGI in test [7] and in test [8] was over 100 µM throughout.
On to `COc1ccc(Cn2cc3c(c2-c2ccccc2)CCc2cnoc2-3)cc1N`, for which the GI50 is 0.626 µM in test [1]; 0.0996 µM in [2]; 0.0788 µM in test [3]; 0.137 µM in [4]; 0.0452 µM in [5]; 0.0617 µM in test [6]. Further, the values for the GI50 in test [9] and in test [8] were 3.01 µM and 0.898 µM, respectively. For the same molecule, the TGI in [1] was over 100 µM; in test [2], over 33.9 µM; in test [3], 2.58 µM; in test [4], 0.617 µM; in test [5], over 100 µM; in test [6], 2.58 µM. Also, the TGI in [9] and in [8] was over 100 µM in each case.
On to `C#CCN(C(=O)C(F)(F)F)c1ccc(C(=O)c2ccc(N(CC#C)C(=O)C(F)(F)F)cc2)cc1`, for which the TGI was over 100 µM in test [1]; over 100 µM in [2]; over 100 µM in test [3]; 40.3 µM in test [4]; 62.9 µM in test [5]; over 100 µM in test [6]. Further, the TGI in [7] and in [8] was over 100 µM each time.
On to `CCCCCCCC(=O)OCC(=O)[C@]1(O)Cc2c(O)c3c(c(O)c2[C@@H](OC2CC(N)C(O)C(C)O2)C1)C(=O)c1c(OC)cccc1C3=O` (some centres undefined), for which the GI50 in [1] was 0.265 µM; in [2], 0.0742 µM; in test [3], 0.188 µM; in test [4], 0.0263 µM; in test [6], 0.0427 µM. In addition, the TGI in test [1] was determined as 2 µM; in test [2] it was 1.09 µM; in test [3], 0.758 µM; in test [4], 0.221 µM; in test [6], 0.185 µM.
Turning to `O=C(CC(=O)c1cccc(Cl)c1)c1cccc(Cl)c1`, the GI50 in [1] is 4.12 µM; in test [2], 1.15 µM; in test [3], 3.02 µM; in [4], 1.99 µM; in [5], 1.12 µM; in test [6], 3.87 µM. Further, the GI50 in test [7] was 2.75 µM; in test [10], 3.88 µM; in test [8], 1.9 µM. In addition, the TGI in test [1], in [2], in test [3], in test [4], in test [5] and in test [6] was over 100 µM throughout. For the same molecule, the TGI in test [7], in test [10] and in test [8] was over 100 µM throughout.
`CC[N+](C)(CC)CC(C)(C)C(=O)/C=C/c1ccc(/C=C/C(=O)C(C)(C)C[N+](C)(CC)CC)cc1`: the TGI in test [1], in test [2], in test [3], in test [4], in [5] and in test [6] was over 100 µM each time. The TGI in [7] and in test [8] was over 100 µM each time.
Turning to `CC(=O)NNc1nc(C)c(C(=O)NNC(=O)C(=O)Nc2ccc([N+](=O)[O-])cc2C#N)s1`, the TGI in [1], in test [2], in test [3], in [4], in test [5] and in test [6] was over 100 µM in each case. Moreover, the TGI in [7] and in [8] was over 100 µM in each case.
As to `CCCCCCCCCCCCCC(=O)CSCCNC(=O)CCNC(=O)[C@@H](O)C(C)(C)COP(=O)(O)OP(=O)(O)OCC1OC(n2cnc3c(N)ncnc32)C(O)C1OP(=O)(O)O` (some centres undefined), the TGI in [1] is over 100 µM; in test [2], 30.1 µM; in test [3], 39 µM; in test [4], 51.4 µM; in [6], 34.5 µM; in [7], 34.6 µM. Also, the TGI in [8] amounted to 22.3 µM.
As to `O=c1cc(-c2ccccc2)oc2cc(OC/C(=N/O)c3ccc(F)cc3)ccc12`, the GI50 in test [1] is 13.7 µM; in test [2], 23.4 µM; in test [3] it was 11.3 µM; in [4], 19 µM; in [5] it was 27.5 µM; in test [6], 8.75 µM. Besides, the GI50 in test [9] was 15.1 µM; in [8] it was over 50 µM. For the same molecule, the TGI in test [1] is 31.8 µM; in [2], over 50 µM; in [3], 29.2 µM; in test [4] it was over 50 µM; in test [5], over 50 µM; in [6], 21.1 µM. Besides, the TGI was 36.9 µM in test [9] and over 50 µM in test [8].
For `Cc1ccc(C)c(NC(=O)CC2SC(=Nc3ccccc3Cl)NC2=O)c1` (centres undefined), the TGI in test [1], in [2], in [3], in [4], in test [6] and in [7] was over 100 µM throughout. In test [8], the TGI was over 100 µM.
